# Results taken from patent US12692244B2, “Griseofulvin 4 position etherified derivatives and their application” (Yan'an University, priority 2023, dated 2026).
# Key:
# Experiment in all cases: Antifungal activity assay, mycelial growth inhibitory rate method
# Type in all cases: cell-based
# Alternaria alternate = conditions: for inhibition of growth at 100 µg/mL: 100 μg/mL in PDA medium, 28° C., 48-72 h; for IC50: mycelial growth, PDA medium, 100-0.0488 μg/mL
# Description: (§1) The antifungal activities were evaluated against seven plant phytopathogenic fungi, by the mycelial growth inhibitory rate method, according to a reported method (Yu-Bin Bai, Meng Zhang, Ding Li, Yu Zhao, Liang-Zhu Huang, and Jin-Ming Gao. J. Agric. Food. Chem., 2023, 71, 16, 6236-6248). The target phytopathogenic fungi are Cytospora sp., Alternaria solani Sorauer, Alternaria alternate, Botrytis sp., Botrytis cinerea Pers., Colletotrichum gloeosporioides and Botryosphaeria dothidea. 100 μg/mL PDA mediums were prepared at 50° C. The petri dishes were incubated and cultivated at 28° C. for 48-72 h. Each sample was measured in triplicate, each colony diameter of all triplicates was measured 4 times by cross bracketing method. Hymexazol (Hym) as the positive control and the result of inhibition rate was calculated according to the formula: [formula] • where C represents the diameter of fungal growth on untreated PDA, and T represents the diameter of fungal growth on treated PDA. […] PDA mediums with different compound concentrations (100, 50, 25, 12.5, 6.25, 3.125, 1.5625, 0.78125, 0.3906, 0.1953, 0.0977, 0.0488 μg/mL) was prepared and their half inhibitory concentration (IC50) values were accurately tested. All half inhibitory concentration results are shown in Table 2 and Hymexazol (Hym) as the positive control.
# [1] = system: Alternaria solani Sorauer; conditions: for inhibition of growth at 100 µg/mL: 100 μg/mL in PDA medium, 28° C., 48-72 h, read-out: Average values of antifungal rate (%) A.s.; for IC50: mycelial growth, PDA medium, 100-0.0488 μg/mL
# Description: as §1
# Botryosphaeria dothidea = conditions: for inhibition of growth at 100 µg/mL: 100 μg/mL in PDA medium, 28° C., 48-72 h, read-out: Average values of antifungal rate (%) B.d.; for IC50: mycelial growth, PDA medium, 100-0.0488 μg/mL
# Description: as §1
# Botrytis cinerea Pers. = conditions: for inhibition of growth at 100 µg/mL: 100 μg/mL in PDA medium, 28° C., 48-72 h, read-out: Average values of antifungal rate (%) B.c.; for IC50: mycelial growth, PDA medium, 100-0.0488 μg/mL
# Description: as §1
# Botrytis sp. = conditions: for inhibition of growth at 100 µg/mL: 100 μg/mL in PDA medium, 28° C., 48-72 h, read-out: Average values of antifungal rate (%) B.s.; for IC50: mycelial growth, PDA medium, 100-0.0488 μg/mL
# Description: as §1
# [2] = system: Colletotrichum gloeosporioides; conditions: for inhibition of growth at 100 µg/mL: 100 μg/mL in PDA medium, 28° C., 48-72 h, read-out: Average values of antifungal rate (%) C.g.; for IC50: mycelial growth, PDA medium, 100-0.0488 μg/mL
# Description: as §1
# Cytospora sp. = conditions: for inhibition of growth at 100 µg/mL: 100 μg/mL in PDA medium, 28° C., 48-72 h, read-out: Average values of antifungal rate (%) C.s.; for IC50: mycelial growth, PDA medium, 100-0.0488 μg/mL
# Description: as §1
IC50 (Alternaria alternate),IC50 [1],IC50 (Botryosphaeria dothidea),IC50 (Botrytis cinerea Pers.),IC50 [2],SMILES,inhibition of growth at 100 µg/mL (Alternaria alternate),inhibition of growth at 100 µg/mL [1],inhibition of growth at 100 µg/mL (Botryosphaeria dothidea),inhibition of growth at 100 µg/mL (Botrytis cinerea Pers.),inhibition of growth at 100 µg/mL (Botrytis sp.),IC50 (Botrytis sp.),inhibition of growth at 100 µg/mL [2],inhibition of growth at 100 µg/mL (Cytospora sp.),IC50 (Cytospora sp.)
1.28 µg/mL,1.32 ± 0.01 µg/mL,1.35 ± 0.07 µg/mL,2.04 ± 0.12 µg/mL,0.06 ± 0.02 µg/mL,"C#CCOc1cc(OC)c(Cl)c2c1C(=O)[C@@]1(O2)C(OC)=CC(=O)C[C@H]1C [Compound 01, 4 Position Propargyl Griseofulvin Derivative]",97.4%,100%,98%,98.6%,100%,2.84 ± 0.22 µg/mL,91.3%,96.6%,1.84 ± 0.01 µg/mL
> 100 µg/mL,> 100 µg/mL,> 100 µg/mL,> 100 µg/mL,> 100 µg/mL,"COC1=CC(=O)C[C@@H](C)[C@]12Oc1c(Cl)c(OC)cc(OCc3ccc(C(C)=O)cc3)c1C2=O [Compound 08, 4 Position 1-(4-(Methyl)Phenyl)-Ethanone Griseofulvin Derivative]",2.59%,0%,4.7%,43.1%,47.6%,> 100 µg/mL,26%,7.43%,> 100 µg/mL
> 100 µg/mL,> 100 µg/mL,> 100 µg/mL,> 25 µg/mL,> 100 µg/mL,"COC1=CC(=O)C[C@@H](C)[C@]12Oc1c(Cl)c(OC)cc(OC3CCCC3)c1C2=O [Compound 09, 4 Position Cyclopentyl Griseofulvin Derivative]",31%,45.9%,34.2%,59.7%,63.1%,> 25 µg/mL,40.9%,59.5%,> 25 µg/mL
> 100 µg/mL,> 100 µg/mL,> 100 µg/mL,> 100 µg/mL,> 25 µg/mL,"CCCCOc1cc(OC)c(Cl)c2c1C(=O)[C@@]1(O2)C(OC)=CC(=O)C[C@H]1C [Compound 03, 4 Position Butyl Griseofulvin Derivative]",7.41%,26.9%,31.8%,19.1%,62.3%,> 25 µg/mL,68.4%,29.1%,> 100 µg/mL
> 25 µg/mL,17.85 ± 0.04 µg/mL,> 100 µg/mL,> 100 µg/mL,> 100 µg/mL,"COC1=CC(=O)C[C@@H](C)[C@]12Oc1c(Cl)c(OC)cc(OCC3CC3)c1C2=O [Compound 04, 4 Position Cyclopropylmethyl Griseofulvin Derivative]",41.4%,70.5%,26.2%,50.7%,69.8%,> 100 µg/mL,48%,65.5%,> 50 µg/mL
> 100 µg/mL,14.9 ± 5.66 µg/mL,> 50 µg/mL,> 50 µg/mL,4.05 ± 0.46 µg/mL,"C=CCOc1cc(OC)c(Cl)c2c1C(=O)[C@@]1(O2)C(OC)=CC(=O)C[C@H]1C [Compound 02, 4 Position Allyl Griseofulvin Derivative]",49.1%,77%,51.7%,56.9%,85.2%,3.93 ± 0.8 µg/mL,70.1%,52.7%,> 50 µg/mL
> 100 µg/mL,> 50 µg/mL,> 50 µg/mL,> 25 µg/mL,3.82 ± 0.09 µg/mL,"COC1=CC(=O)C[C@@H](C)[C@]12Oc1c(Cl)c(OC)cc(OCc3ccsc3)c1C2=O [Compound 07, 4 Position 3-Methylthiophene Griseofulvin Derivative]",43.1%,62.3%,42.3%,59.7%,73.8%,17.6 ± 0.27 µg/mL,72.4%,54.7%,> 50 µg/mL
> 50 µg/mL,83.2 ± 14.5 µg/mL,> 25 µg/mL,> 25 µg/mL,16.1 ± 1.3 µg/mL,"COCOc1cc(OC)c(Cl)c2c1C(=O)[C@@]1(O2)C(OC)=CC(=O)C[C@H]1C [Compound 05, 4 Position Methoxymethyl Griseofulvin Derivative]",49.1%,75.4%,58.4%,66%,88.6%,31.6 ± 7.3 µg/mL,71.7%,73.7%,81.4 ± 1.23 µg/mL
> 100 µg/mL,> 100 µg/mL,> 100 µg/mL,> 50 µg/mL,1.92 ± 0.19 µg/mL,"COC1=CC(=O)C[C@@H](C)[C@]12Oc1c(Cl)c(OC)cc(OCc3ccccc3F)c1C2=O [Compound 06, 4 Position 2-Fluorobenzyl Griseofulvin Derivative]",3.45%,13.1%,18.1%,55.6%,69.8%,> 25 µg/mL,75.6%,6.08%,> 100 µg/mL

SMILES,IC50 (Alternaria alternate),IC50 [1],IC50 (Botryosphaeria dothidea),IC50 (Botrytis cinerea Pers.),IC50 [2],inhibition of growth at 100 µg/mL (Alternaria alternate),inhibition of growth at 100 µg/mL [1],inhibition of growth at 100 µg/mL (Botryosphaeria dothidea),inhibition of growth at 100 µg/mL (Botrytis cinerea Pers.),inhibition of growth at 100 µg/mL (Botrytis sp.),IC50 (Botrytis sp.),inhibition of growth at 100 µg/mL [2],inhibition of growth at 100 µg/mL (Cytospora sp.),IC50 (Cytospora sp.)
"Cc1cc(O)no1 [Hym, Hymexazol, reference compound]",15.58 ± 0.13 µg/mL,45.3 ± 14 µg/mL,> 50 µg/mL,> 6.25 µg/mL,> 100 µg/mL,92.6%,97.4%,55.6%,100%,92.5%,13.5 ± 1.89 µg/mL,43.2%,48%,> 100 µg/mL
